The source of these data is patent US20230219912A1, “HALOGENATED BENZOTHIADIAZINES FOR THE TREATMENT OF CANCER” (BOARD OF REGENTS OF THE UNIVERSITY OF NEBRASKA, priority 2020, published 2023).

Assay [1] deals with MDA-MB-468 triple negative breast cancer cells. Nature of the assay: MTS cytotoxicity assay in MDA-MB-468 triple negative breast cancer cells. The conditions noted are these: 10, 50 and 100 μM for 24, 48 and 72 hours, MTS. It is filed as cell-based. Here is the method: The assay was performed as follows.
Derivatives were dosed at 10, 50 and 100 μM for 24, 48 and 72 hours and cell viability measured by MTS assay (FIG. 5).
(Formazan colour is commonly taken as a measure of viable cells.)

Assay [2] relates to VEGF-induced proliferation of HUVEC cells. Nature of the assay: VEGF-induced HUVEC proliferation, MTT assay. It is filed as cell-based, human. The conditions noted are these: Homo sapiens, HUVEC, 48 h, 20 μM compound, VEGF 10 ng/mL, HUVEC, 48 h; relative to VEGF treated cells; mean ± SEM n = 3; read-out: % Inhibition of Proliferation. Put shortly:
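HUVECs starved 24 h in 0.1% BSA/0.1% FBS basal medium, then treated 48 h with VEGF (10 ng/mL) alone or with compounds at 20 μM (DMSO <1%). Proliferation by MTT (2 h, 37° C), formazan dissolved in acidified isopropanol, absorbance at 570 nm.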

The next assay deals with DYRK1A (Homo sapiens, UniProt Q13627). The conditions noted are these: 100 μM; cited from earlier work.

“Also recorded” adds a separate entry of the source.

For the compound `CC1=Nc2ccc(Cl)cc2S(=O)(=O)N1` [Diazoxide, 7-chloro-3-methyl-2H-1,2,4-benzothiadiazine 1,1-dioxide, reference compound], the “effect on MDA-MB 468 TNBC cell viability” value in assay [1] is given as “no effect to reduce cell viability; also recorded: little activity to reduce TNBC cell viability”; in assay [1] (listed as 9) it was “no effect on cell viability”. In addition, the inhibition at 20 µM in assay [2] stood at 15 ± 20%. Besides, the “inhibition of DYRK1A” value on DYRK1A was 7%.
